Usually MIC stands for the smallest concentration in the dilution series that meets the test's criterion for growth inhibition.

These results are taken from ChEMBL document CHEMBL3045781, “Sensitivity monitoring of powdery mildew pathogens to cyflufenamid and the evaluation of resistance risk” (J Pestic Sci, 2006).

In brackets after ≈: the same amount, converted by molar mass.

Assay [1] relates to Podosphaera fusca. The assay can be described thus: Antifungal activity against Sphaerotheca cucurbitae in compound treated cucumber leaves at 20 degC measured after 5 days by leaf disk assay. Type of assay: functional, organism-based.
Assay [2] concerns Podosphaera fusca. The assay can be described thus: Antifungal activity against kresoxim-methyl-resistant Sphaerotheca cucurbitae SFKMR-1. Type of assay: functional.
Assay [3] concerns Blumeria graminis f. sp. tritici. The assay can be described thus: Antifungal activity against Blumeria graminis f. sp. tritici after 6.25 g/ha 6 applications of compound in pot by selection pressure test (Control = 0.097 ppm). Type of assay: functional, organism-based.
Assay [4] has the same test system. The assay can be described thus: Antifungal activity against Blumeria graminis f. sp. tritici after 6.25 g/ha 16 applications of compound by selection pressure test. Type of assay: functional, organism-based.
In assay [5] the test system is Podosphaera fusca. Nature of the assay: Antifungal activity against triflumizole-resistant Sphaerotheca cucurbitae SFTFR-1. Type of assay: functional.
Assay [6] relates to Blumeria graminis f. sp. tritici. The assay can be described thus: Antifungal activity against Blumeria graminis f. sp. tritici strains in compound treated wheat seedlings measured after 7 days by pot assay. Type of assay: functional, organism-based.
Assay [7] shares this test system. Nature of the assay: Antifungal activity against Blumeria graminis f. sp. tritici strains by leaf segment floating assay. Type of assay: functional, organism-based.
The test system of assay [8] is Podosphaera fusca. The assay can be described thus: Antifungal activity against thiophanate-methyl-resistant Sphaerotheca cucurbitae SFTMR-1. Type of assay: functional.
Assay [9] deals with Podosphaera fusca. The assay can be described thus: Antifungal activity against wild type Sphaerotheca cucurbitae SFS-1. Type of assay: functional.

With `O=C(Cc1ccccc1)N/C(=N\OCC1CC1)c1c(C(F)(F)F)ccc(F)c1F` [CYFLUFENAMID], the EC50 in the assay with Podosphaera fusca [1] is 0.0019 ppm; in assay [3], 0.007 ppm; in assay [4], 0.0008 ppm; in assay [6], 0.029 ppm; in [7] it was 0.0011 ppm. The MIC in the assay with Podosphaera fusca [1] (Podosphaera fusca, 120 h) came to 0.001 mg/L (≈ 0.00243 µM); against Podosphaera fusca [2], 0.8 mg/L (≈ 1.94 µM); against Podosphaera fusca [5], 0.8 mg/L (≈ 1.94 µM); in assay [6] (Blumeria graminis, 168 h) it was 0.2 mg/L (≈ 0.485 µM); in the assay on Podosphaera fusca [8] it was 0.8 mg/L (≈ 1.94 µM); with Podosphaera fusca [9], 0.8 mg/L (≈ 1.94 µM).
In the case of `CO/N=C(/C(=O)OC)c1ccccc1COc1ccccc1C` [KRESOXIM-METHYL], the MIC in the assay with Podosphaera fusca [2] was more than 100 mg/L; in the assay on Podosphaera fusca [9] it was 0.8 mg/L (≈ 2.55 µM).
Regarding `COC(=O)NC(=S)Nc1ccccc1NC(=S)NC(=O)OC` [THIOPHANATE METHYL], the MIC in the assay with Podosphaera fusca [8] was more than 100 mg/L; in the assay on Podosphaera fusca [9], 1 mg/L (≈ 2.92 µM).
With `CCCOC/C(=N\c1ccc(Cl)cc1C(F)(F)F)n1ccnc1` [TRIFLUMIZOLE], the MIC worked out at 5 mg/L (≈ 14.5 µM) against Podosphaera fusca [5] and 0.1 mg/L (≈ 0.289 µM) with Podosphaera fusca [9].
